Laboratory results from US20220089638A1, “DITHIOCARBAMATE STAPLED PEPTIDES AND METHODS OF MAKING AND USE THEREOF” (UNIVERSITY OF MARYLAND, BALTIMORE, priority 2019, published 2022).
Where a SMILES comes first, the peptide text is derived from it. Bridges are numbered along the chain shown (N, C = ends). Where no end group is shown, it is not given here.

T1: cathepsin G (Homo sapiens, UniProt P08311)
T1 sequence (P08311 21-244): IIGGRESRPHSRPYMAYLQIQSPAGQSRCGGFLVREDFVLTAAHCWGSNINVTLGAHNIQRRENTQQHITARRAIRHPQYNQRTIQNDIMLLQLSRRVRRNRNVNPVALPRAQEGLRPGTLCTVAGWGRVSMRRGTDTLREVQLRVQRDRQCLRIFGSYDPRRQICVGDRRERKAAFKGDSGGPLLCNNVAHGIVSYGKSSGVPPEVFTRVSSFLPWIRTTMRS

T2: synthetic 24-108MDMX (p53-binding domain of MDMX) (UniProt O15151 24-108)
T2 sequence (looked up): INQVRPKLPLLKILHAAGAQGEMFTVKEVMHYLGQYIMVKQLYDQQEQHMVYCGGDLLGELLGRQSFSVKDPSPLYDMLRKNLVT

B1: ^DTCp53 (DTC-stapled 16-27p53, Ser20Cys, staple Cys20-Lys24) (peptide, UniProt P04637 16-27, looked up)
peptide: QETFCDLWKLLP
modifications: bridge 5-9
notes: range 16-27; also called stapled p53 peptide
B2: PMI(4,8)-a (peptide)
peptide: Ac-TSFKEYWCLLSP-NH2
modifications: bridge 4-8
notes: Co-crystal with MDMX is PDB 5VK1; also called PMI(4, 8)-1

Columns and labels:
[1] = Circular dichroism spectroscopy, percent α-helix; type: physicochemical; details: CD spectroscopy
Description: Circular Dichroism (CD) Spectroscopy.

HCT116 p53^+/+ = experiment: Cell viability assay (CCK8), HCT116 p53+/+; type: cell-based, human; details: concentrations of up to 50 μM
HCT116 p53^+/+ cells = experiment: Cellular uptake by confocal microscopy; type: cell-based, human; details: FITC-labeled peptide, 20 μM, 4 h
Experimental: Cellular uptake of ^DTCPMI. […] Cells were then incubated with 20 μM FITC-^DTCPMI Ctrl. or FITC-^DTCPMI for 4 h. Cells were washed with Dulbecco's phosphate buffered saline, fixed with 4% (wt/vol) paraformaldehyde, finally incubated by DAPI to stain the cell nucleus. Imaged using an LSM 510 Zeiss Axiovert 200M (v4.0) confocal microscope. Images were analyzed using an LSM image browser.

HCT116 p53^−/− = experiment: Cell viability assay (CCK8), HCT116 p53-/-; type: cell-based, human; details: concentrations of up to 50 μM
cathepsin G = biological target: T1, cathepsin G; experiment: Proteolytic stability in the presence of cathepsin G; type: in vitro ADME; details: cathepsin G (25 μg/ml) in RPMI 1640; 100 μM peptide, 25 μg/mL cathepsin G, cell culture medium, room temperature
[2] = 25° C., PBS buffer, glutathione 10 mM, over 24 h
[3] = biological target: T2, synthetic 24-108MDMX (p53-binding …); experiment: SPR competition in solution: MDMX at 100 nM incubated with the peptide, free MDMX read on a chip with immobilised 15-29p53
[4] = biological target: T3, synthetic 25-109MDM2 (p53-binding domain of MDM2) (UniProt Q00987 25-109); experiment: FP competition: the peptide displaces TAMRA-PMI (10 nM) from MDM2 (50 nM)
T3 construct: range 25-109

[5] = biological target: T2, synthetic 24-108MDMX (p53-binding …); experiment: FP competition: the peptide displaces TAMRA-PMI (10 nM) from MDMX (50 nM) [right panel]
[6] = biological target: T3, synthetic 25-109MDM2 (p53-binding …); experiment: SPR competition in solution: MDM2 at 25 nM incubated with the peptide, free MDM2 read on a chip with immobilised 15-29p53
[7] = biological target: T2, synthetic 24-108MDMX (p53-binding …); experiment: FP competition: the peptide displaces TAMRA-PMI (10 nM) from MDMX (50 nM)
[8] = biological target: T3, synthetic 25-109MDM2 (p53-binding …); experiment: SPR competition in solution: MDM2 at 25 nM incubated with the peptide, free MDM2 read on a chip with immobilised 15-29p53; remark: listed apart in the source
[9] = biological target: T2, synthetic 24-108MDMX (p53-binding …); experiment: SPR competition in solution: MDMX at 100 nM incubated with the peptide, free MDMX read on a chip with immobilised 15-29p53; remark: listed apart in the source
[10] = biological target: T3, synthetic 25-109MDM2 (p53-binding …); experiment: FP competition: the peptide displaces TAMRA-PMI (10 nM) from MDM2 (50 nM); remark: listed apart in the source
[11] = biological target: T3, synthetic 25-109MDM2 (p53-binding …); experiment: FP competition: the peptide displaces TAMRA-PMI (10 nM) from MDM2 (50 nM) [left panel]

Molecule	α-helix (%) ([1]; Table 3)	α-helix (%) ([1]; Table 7)	other results
CC(=O)N[C@H](C(=O)N[C@@H](CO)C(=O)N[C@@H](Cc1ccccc1)C(=O)N[C@H]1CCCCNC(=S)SC[C@@H](C(=O)N[C@@H](CC(C)C)C(=O)N[C@@H](CC(C)C)C(=O)N[C@@H](CO)C(=O)N2CCC[C@H]2C(N)=O)NC(=O)[C@H](Cc2c[nH]c3ccccc23)NC(=O)[C@H](Cc2ccc(O)cc2)NC(=O)[C@H](CCC(=O)O)NC1=O)[C@@H](C)O [PMI(4,8)-a]	25	39.3	
CC(=O)N[C@H](C(=O)N[C@@H](CO)C(=O)N[C@@H](Cc1ccccc1)C(=O)N[C@@H](C)C(=O)N[C@H]1CCCCNC(=S)SC[C@@H](C(=O)N[C@@H](CC(C)C)C(=O)N[C@@H](CO)C(=O)N2CCC[C@H]2C(N)=O)NC(=O)[C@H](CC(N)=O)NC(=O)[C@H](Cc2c[nH]c3ccccc23)NC(=O)[C@H](Cc2ccc(O)cc2)NC1=O)[C@@H](C)O [PMI(5,9)-a]	0	6.88	
CC(=O)N[C@H](C(=O)N[C@@H](CO)C(=O)N[C@@H](Cc1ccccc1)C(=O)N[C@@H](C)C(=O)N[C@@H](CCC(=O)O)C(=O)N[C@@H](Cc1ccc(O)cc1)C(=O)N[C@@H](Cc1c[nH]c2ccccc12)C(=O)N[C@H]1CSC(=S)NCCCC[C@@H](C(N)=O)NC(=O)[C@H](CO)NC(=O)[C@H](CC(C)C)NC(=O)[C@H](CC(C)C)NC1=O)[C@@H](C)O [PMI(8,12)-b]	0	0.23	
CC(=O)N[C@H](C(=O)N[C@H]1CCCCNC(=S)SC[C@@H](C(=O)N[C@@H](Cc2c[nH]c3ccccc23)C(=O)N[C@@H](CC(N)=O)C(=O)N[C@@H](CC(C)C)C(=O)N[C@@H](CC(C)C)C(=O)N[C@@H](CO)C(=O)N2CCC[C@H]2C(N)=O)NC(=O)[C@H](CCC(=O)O)NC(=O)[C@H](C)NC(=O)[C@H](Cc2ccccc2)NC1=O)[C@@H](C)O [PMI(2,6)-a]	5.9	15.3	
CC(=O)N[C@H]1CSC(=S)NCCCC[C@@H](C(=O)N[C@@H](Cc2ccc(O)cc2)C(=O)N[C@@H](Cc2c[nH]c3ccccc23)C(=O)N[C@@H](CC(N)=O)C(=O)N[C@@H](CC(C)C)C(=O)N[C@@H](CC(C)C)C(=O)N[C@@H](CO)C(=O)N2CCC[C@H]2C(N)=O)NC(=O)[C@H](C)NC(=O)[C@H](Cc2ccccc2)NC(=O)[C@H](CO)NC1=O [PMI(1,5)-b]	7.6	8.38	
CC(=O)N[C@H](C(=O)N[C@@H](CO)C(=O)N[C@@H](Cc1ccccc1)C(=O)N[C@H]1CSC(=S)NCCCC[C@@H](C(=O)N[C@@H](CC(C)C)C(=O)N[C@@H](CC(C)C)C(=O)N[C@@H](CO)C(=O)N2CCC[C@H]2C(N)=O)NC(=O)[C@H](Cc2c[nH]c3ccccc23)NC(=O)[C@H](Cc2ccc(O)cc2)NC(=O)[C@H](CCC(=O)O)NC1=O)[C@@H](C)O [PMI(4,8)-b]	5.6	9.15	
CC(=O)N[C@H]1CCCCNC(=S)SC[C@@H](C(=O)N[C@@H](Cc2ccc(O)cc2)C(=O)N[C@@H](Cc2c[nH]c3ccccc23)C(=O)N[C@@H](CC(N)=O)C(=O)N[C@@H](CC(C)C)C(=O)N[C@@H](CC(C)C)C(=O)N[C@@H](CO)C(=O)N2CCC[C@H]2C(N)=O)NC(=O)[C@H](C)NC(=O)[C@H](Cc2ccccc2)NC(=O)[C@H](CO)NC1=O [PMI(1,5)-a]	36	6.50	
CC(=O)N[C@H](C(=O)N[C@H]1CSC(=S)NCCCC[C@@H](C(=O)N[C@@H](Cc2c[nH]c3ccccc23)C(=O)N[C@@H](CC(N)=O)C(=O)N[C@@H](CC(C)C)C(=O)N[C@@H](CC(C)C)C(=O)N[C@@H](CO)C(=O)N2CCC[C@H]2C(N)=O)NC(=O)[C@H](CCC(=O)O)NC(=O)[C@H](C)NC(=O)[C@H](Cc2ccccc2)NC1=O)[C@@H](C)O [PMI(2,6)-b]	3.1	4.81	
CC(=O)N[C@H](C(=O)N[C@@H](CO)C(=O)N[C@@H](Cc1ccccc1)C(=O)N[C@@H](CCCCN)C(=O)N[C@@H](CCC(N)=O)C(=O)N[C@@H](Cc1ccc(O)cc1)C(=O)N[C@@H](Cc1c[nH]c2ccccc12)C(=O)N[C@@H](CS)C(=O)N[C@@H](CC(C)C)C(=O)N[C@@H](CC(C)C)C(=O)N[C@@H](CO)C(=O)N[C@@H](CCCNC(=N)N)C(N)=O)[C@@H](C)O [^DTCPMI Ctrl., reference compound]		16.6	anti-proliferative activity against HCT116 p53+/+ (HCT116 p53^+/+): no anti-proliferative activity; intracellular localization / cellular uptake (confocal microscopy) (HCT116 p53^+/+ cells): diffused intracellular localization, demonstrating efficient cellular uptake; anti-proliferative activity against HCT116 p53-/- (HCT116 p53^−/−): no anti-proliferative activity
CC(=O)N[C@H](C(=O)N[C@@H](CO)C(=O)N[C@@H](Cc1ccccc1)C(=O)N[C@@H](C)C(=O)N[C@@H](CCC(=O)O)C(=O)N[C@@H](Cc1ccc(O)cc1)C(=O)N[C@@H](Cc1c[nH]c2ccccc12)C(=O)N[C@@H](CC(N)=O)C(=O)N[C@@H](CC(C)C)C(=O)N[C@@H](CC(C)C)C(=O)N[C@@H](CO)C(=O)N1CCC[C@H]1C(N)=O)[C@@H](C)O [PMI-0, reference compound] (Ac-TSFAEYWNLLSP-NH2)	0	9.77	
CC(=O)N[C@H](C(=O)N[C@@H](CO)C(=O)N[C@@H](Cc1ccccc1)C(=O)N[C@@H](C)C(=O)N[C@H]1CSC(=S)NCCCC[C@@H](C(=O)N[C@@H](CC(C)C)C(=O)N[C@@H](CO)C(=O)N2CCC[C@H]2C(N)=O)NC(=O)[C@H](CC(N)=O)NC(=O)[C@H](Cc2c[nH]c3ccccc23)NC(=O)[C@H](Cc2ccc(O)cc2)NC1=O)[C@@H](C)O [PMI(5,9)-b]	0	9.58	
CC(=O)N[C@H](C(=O)N[C@@H](CO)C(=O)N[C@@H](Cc1ccccc1)C(=O)N[C@@H](C)C(=O)N[C@@H](CCC(=O)O)C(=O)N[C@@H](Cc1ccc(O)cc1)C(=O)N[C@@H](Cc1c[nH]c2ccccc12)C(=O)N[C@H]1CCCCNC(=S)SC[C@@H](C(N)=O)NC(=O)[C@H](CO)NC(=O)[C@H](CC(C)C)NC(=O)[C@H](CC(C)C)NC1=O)[C@@H](C)O [PMI(8,12)-a]	33	43.3	half-life at 100 μM (cathepsin G): ~8 h; breakdown of the DTC structure in reduced glutathione [2]: no apparent breakdown of the DTC structure was observed over 24 h
B1			IC50 (read off the curve) [3]: ~100 nM; IC50 (read off the curve) [4]: ~300 nM
B2			IC50 (read off the curve) [5]: ~30 nM; IC50 (read off the curve) [6]: ~10 nM; IC50 (read off the curve) [7]: ~30 nM; IC50 (read off the curve) [8]: ~10 nM; IC50 (read off the curve) [9]: ~50 nM; IC50 (read off the curve) [10]: ~40 nM; IC50 (read off the curve) [11]: ~40 nM
Ac-TSFAEYWKLLSC-NH2 (bridge 8-12) [PMI(8,12)-a]			IC50 (read off the curve) [6]: ~10 nM; IC50 (read off the curve) [8]: ~10 nM; IC50 (read off the curve) [9]: 50 to 60 nM; IC50 (read off the curve) [10]: ~30 nM; IC50 (read off the curve) [11]: ~30 nM
